Experimental data: patent publication US20140107021A1 (priority 2010, published 2014)
pEC50: −log10 of the molar value. Read-outs that look alike come from different tables or passages of the source. Square brackets hold non-standard residues; d marks the D form. Ends that are not written are not given here. Peptide text beside a SMILES is read from it. * marks the point of attachment. PEG 40 kDa = PEG of 40 kDa covalently attached to Cys; Palmitoyl = CCCCCCCCCCCCCCCC(=O)*; Myristoyl = CCCCCCCCCCCCCC(=O)*; Aib = CC(C)(N)C(=O)O

Key:
GLP-1 receptor = molecular target: T1, GLP-1 receptor (Homo sapiens, UniProt P43220); assay: cAMP induction at the GLP-1 receptor (agonist activity), firefly luciferase reporter assay in HEK293 cells; assay type: cell-based; conditions: for pEC50 / GLP-1R relative activity: Table 4; for pEC50: read-out: GLP-1R EC50; for GLP-1R relative activity: relative to standard
T1 construct: expressed in transfected cells; host or cells: HEK293
Source text: (§1) HEK293 cells co-transfected with the receptor and luciferase gene linked to a cAMP responsive element were employed for the bioassay.
(§2) All EC50s and IC50s are reported in the following examples in nM, unless indicated otherwise.

glucagon receptor [1] = molecular target: T2, glucagon receptor (Homo sapiens, UniProt P47871); assay: cell-based; conditions: Glu ICso (nM), Table A; Glu = glucagon
Source text: as §1, §2

GIP receptor = molecular target: T3, GIP receptor (Homo sapiens, UniProt P48546); assay: cAMP induction at the GIP receptor (agonist activity), luciferase reporter assay in HEK293 cells; assay type: cell-based; conditions: for pEC50 / GIPR relative activity: Table 4; for pEC50: read-out: GIPR EC50; for GIPR relative activity: relative to standard
T3 construct: expressed in transfected cells; host or cells: HEK293
T3 sequence (P48546 22-466): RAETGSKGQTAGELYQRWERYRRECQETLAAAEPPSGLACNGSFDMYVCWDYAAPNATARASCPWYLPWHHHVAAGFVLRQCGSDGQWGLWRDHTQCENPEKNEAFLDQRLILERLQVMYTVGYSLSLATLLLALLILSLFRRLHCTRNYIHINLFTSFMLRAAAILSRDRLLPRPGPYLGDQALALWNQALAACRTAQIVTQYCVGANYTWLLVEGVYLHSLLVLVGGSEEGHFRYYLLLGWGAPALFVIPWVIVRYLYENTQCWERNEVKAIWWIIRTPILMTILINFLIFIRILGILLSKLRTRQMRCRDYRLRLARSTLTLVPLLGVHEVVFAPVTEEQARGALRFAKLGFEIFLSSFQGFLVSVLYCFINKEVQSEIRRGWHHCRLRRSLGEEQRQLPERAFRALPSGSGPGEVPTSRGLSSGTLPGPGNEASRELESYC
Source text: as §1, §2

glucagon receptor [2] = molecular target: T2, glucagon receptor; assay: cAMP induction at the glucagon receptor (agonist activity), luciferase reporter assay in HEK293 cells; assay type: cell-based; set-up: expressed in transfected cells; host or cells: HEK293; conditions: for pEC50 / GR relative activity: Table 4; for pEC50: read-out: GR EC50; for GR relative activity: relative to standard
Source text: as §1, §2

[3] = Table 7, relative to the native ligand of the receptor

T2 sequence (P47871 26-477): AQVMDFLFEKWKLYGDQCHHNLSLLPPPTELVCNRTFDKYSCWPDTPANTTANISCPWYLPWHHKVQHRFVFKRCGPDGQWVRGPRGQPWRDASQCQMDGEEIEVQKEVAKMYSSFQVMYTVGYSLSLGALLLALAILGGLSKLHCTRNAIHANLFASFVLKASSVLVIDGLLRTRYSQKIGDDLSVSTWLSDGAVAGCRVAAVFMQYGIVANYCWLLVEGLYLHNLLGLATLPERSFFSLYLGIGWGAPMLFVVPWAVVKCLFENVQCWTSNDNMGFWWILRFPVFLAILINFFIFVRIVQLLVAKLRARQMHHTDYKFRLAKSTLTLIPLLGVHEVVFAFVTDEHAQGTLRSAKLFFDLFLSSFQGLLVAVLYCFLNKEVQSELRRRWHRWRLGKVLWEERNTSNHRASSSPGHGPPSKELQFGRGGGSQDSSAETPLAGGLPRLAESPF
T1 sequence (P43220 24-463): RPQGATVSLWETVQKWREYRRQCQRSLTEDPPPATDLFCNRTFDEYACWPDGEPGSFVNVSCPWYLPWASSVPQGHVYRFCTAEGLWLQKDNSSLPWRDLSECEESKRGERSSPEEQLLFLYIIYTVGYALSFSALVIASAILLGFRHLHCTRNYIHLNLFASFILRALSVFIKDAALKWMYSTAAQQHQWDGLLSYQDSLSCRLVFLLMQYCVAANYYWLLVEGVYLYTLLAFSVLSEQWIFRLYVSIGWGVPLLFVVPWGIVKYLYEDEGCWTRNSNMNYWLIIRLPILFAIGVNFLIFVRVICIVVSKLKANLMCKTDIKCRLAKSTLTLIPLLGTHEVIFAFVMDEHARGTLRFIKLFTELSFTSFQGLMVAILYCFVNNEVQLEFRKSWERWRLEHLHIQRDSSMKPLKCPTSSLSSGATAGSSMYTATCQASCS

## CSCC[C@H](NC(=O)[C@H](CC(C)C)NC(=O)[C@H](Cc1c[nH]c2ccccc12)NC(=O)[C@H](CCC(N)=O)NC(=O)[C@@H](NC(=O)[C@H](Cc1ccccc1)NC(=O)[C@H](CC(=O)O)NC(=O)[C@H](CCC(N)=O)NC(=O)[C@H](C)NC(=O)[C@H](CCCNC(=N)N)NC(=O)[C@H](CCCNC(=N)N)NC(=O)[C@@H]1CCC(=O)NCCCC[C@H](NC(=O)[C@H](CO)NC(=O)[C@H](Cc2ccc(O)cc2)NC(=O)[C@H](CCC(=O)O)NC(=O)[C@H](CO)NC(=O)[C@@H](NC(=O)[C@@H](O)Cc2ccccc2)[C@@H](C)O)C(=O)N[C@@H](Cc2ccc(O)cc2)C(=O)N[C@@H](CC(C)C)C(=O)N[C@@H](CC(=O)O)C(=O)N1)C(C)C)C(=O)N[C@@H](CC(N)=O)C(=O)N[C@H](C(=O)NCC(=O)N1CCC[C@H]1C(=O)N[C@@H](CO)C(=O)N[C@@H](CO)C(=O)NCC(=O)N[C@@H](C)C(=O)N1CCC[C@H]1C(=O)N1CCC[C@H]1C(=O)N1CCC[C@H]1C(=O)N[C@@H](CO)C(N)=O)[C@@H](C)O [[PLA6, E9, K12E16(Lactam)] (HELM PEPTIDE1{[O=C([C@@H](O)Cc1ccccc1)[*:2]].T.S.E.Y.S.K.Y.L.D.E.R.R.A.Q.D.F.V.Q.W.L.M.N.T.G.P.S.S.G.A.P.P.P.S.[am]}$PEPTIDE1,PEPTIDE1,7:R3-11:R3$$$V2.0)
GLP-1 receptor; GLP-1 EC50 (nM), Table C
  EC50: 6 nM
GLP-1 receptor; GLP-1 ECso (nM), Table A
  EC50: 6 nM
Glucagon receptor [1]
  IC50: 72 nM

## CC[C@H](C)[C@H](NC(=O)[C@H](CO)NC(=O)[C@H](Cc1ccc(O)cc1)NC(=O)[C@H](CC(=O)O)NC(=O)[C@H](CO)NC(=O)[C@@H](NC(=O)[C@H](Cc1ccccc1)NC(=O)[C@@H](NC(=O)CNC(=O)[C@H](CCC(=O)O)NC(=O)C(C)(C)NC(=O)[C@@H](N)Cc1ccc(O)cc1)[C@@H](C)O)[C@@H](C)O)C(=O)N[C@@H](Cc1ccc(O)cc1)C(=O)N[C@@H](CC(C)C)C(=O)N[C@@H](CC(=O)O)C(=O)N[C@@H](CCCCN)C(=O)N[C@@H](CCC(N)=O)C(=O)N[C@@H](C)C(=O)N[C@@H](C)C(=O)NC(C)(C)C(=O)N[C@@H](CCC(=O)O)C(=O)N[C@@H](Cc1ccccc1)C(=O)N[C@H](C(=O)N[C@@H](CC(N)=O)C(=O)N[C@@H](Cc1c[nH]c2ccccc12)C(=O)N[C@@H](CC(C)C)C(=O)N[C@@H](CC(C)C)C(=O)N[C@@H](C)C(=O)NCC(=O)NCC(=O)N1CCC[C@H]1C(=O)N[C@@H](CO)C(=O)N[C@@H](CO)C(=O)NCC(=O)N[C@@H](C)C(=O)N1CCC[C@H]1C(=O)N1CCC[C@H]1C(=O)N1CCC[C@H]1C(=O)N[C@@H](CO)C(N)=O)C(C)C [mt-395]
GLP-1 receptor
  pEC50: 11.12
  GLP-1R relative activity: 321.55%
GIP receptor
  pEC50: 11.60
  GIPR relative activity: 537.45%
Glucagon receptor [2]
  pEC50: 8.47
  GR relative activity: 0.87%

## CC[C@H](C)[C@H](NC(=O)[C@H](CO)NC(=O)[C@H](Cc1ccc(O)cc1)NC(=O)[C@H](CC(=O)O)NC(=O)[C@H](CO)NC(=O)[C@@H](NC(=O)[C@H](Cc1ccccc1)NC(=O)[C@@H](NC(=O)CNC(=O)[C@H](CCC(=O)O)NC(=O)C(C)(C)NC(=O)[C@@H](N)Cc1ccc(O)cc1)[C@@H](C)O)[C@@H](C)O)C(=O)N[C@@H](Cc1ccc(O)cc1)C(=O)N[C@@H](CC(C)C)C(=O)N[C@@H](CC(=O)O)C(=O)N[C@@H](CCCCN)C(=O)N[C@@H](CCC(N)=O)C(=O)N[C@@H](C)C(=O)N[C@@H](C)C(=O)NC(C)(C)C(=O)N[C@@H](CCC(=O)O)C(=O)N[C@@H](Cc1ccccc1)C(=O)N[C@H](C(=O)N[C@@H](CC(N)=O)C(=O)N[C@@H](Cc1c[nH]c2ccccc12)C(=O)N[C@@H](CC(C)C)C(=O)N[C@@H](CC(C)C)C(=O)N[C@@H](C)C(=O)NCC(=O)NCC(=O)N1CCC[C@H]1C(=O)N[C@@H](CO)C(=O)N[C@@H](CO)C(=O)NCC(=O)N[C@@H](C)C(=O)N1CCC[C@H]1C(=O)N1CCC[C@H]1C(=O)N1CCC[C@H]1C(=O)N[C@@H](CO)C(=O)N[C@@H](CCC(=O)O)C(N)=O)C(C)C [mt-396]
GLP-1 receptor
  pEC50: 11.03
  GLP-1R relative activity: 262.27%
GIP receptor
  pEC50: 11.47
  GIPR relative activity: 402.69%
Glucagon receptor [2]
  pEC50: 8.54
  GR relative activity: 1.03%

## CC[C@H](C)[C@H](NC(=O)[C@H](CO)NC(=O)[C@H](Cc1ccc(O)cc1)NC(=O)[C@H](CC(=O)O)NC(=O)[C@H](CO)NC(=O)[C@@H](NC(=O)[C@H](Cc1ccccc1)NC(=O)[C@@H](NC(=O)CNC(=O)[C@H](CCC(=O)O)NC(=O)C(C)(C)NC(=O)[C@@H](N)Cc1ccc(O)cc1)[C@@H](C)O)[C@@H](C)O)C(=O)N[C@@H](Cc1ccc(O)cc1)C(=O)N[C@@H](CC(C)C)C(=O)N[C@@H](CC(=O)O)C(=O)N[C@@H](CCCCN)C(=O)N[C@@H](CCC(N)=O)C(=O)N[C@@H](C)C(=O)N[C@@H](C)C(=O)NC(C)(C)C(=O)N[C@@H](CCC(=O)O)C(=O)N[C@@H](Cc1ccccc1)C(=O)N[C@H](C(=O)N[C@@H](CC(N)=O)C(=O)N[C@@H](Cc1c[nH]c2ccccc12)C(=O)N[C@@H](CC(C)C)C(=O)N[C@@H](CC(C)C)C(=O)N[C@@H](C)C(=O)NCC(=O)NCC(=O)N1CCC[C@H]1C(=O)N[C@@H](CO)C(=O)N[C@@H](CO)C(=O)NCC(=O)N[C@@H](C)C(=O)N1CCC[C@H]1C(=O)N1CCC[C@H]1C(=O)N1CCC[C@H]1C(=O)N[C@@H](CO)C(=O)N[C@H](CCCCN)C(N)=O)C(C)C [mt-398]
GLP-1 receptor
  pEC50: 11.11
GIP receptor
  pEC50: 11.51
Glucagon receptor [2]
  pEC50: 8.43

## Chimera2-CEXK40(C16) (H[Aib]QGTFTSDYSKYLDEQAAKEFIAWLMNGGPSSGAPPPSK(Palmitoyl)-NH2) [MT-364]
GLP-1 receptor; [3]
  % Relative Activity GLP-1R: 355%
GIP receptor; [3]
  % Relative Activity at GIPR: 16%
Glucagon receptor [2]; [3]
  % Relative Activity at GR: 350%

## E3C24-PEG-K10-C14 (Y[Aib]EGTFTSDK(Myristoyl)SIYLDKQAA[Aib]EFVC(PEG 40 kDa)WLLAGGPSSGAPPPS-NH2) [MT-341]
GLP-1 receptor; Table 9
  % Relative Activity GLP-1R: 14.6%
GIP receptor; Table 9
  % Relative Activity at GIPR: 27.4%
Glucagon receptor [2]; Table 9
  % Relative Activity at GR: 0.01%
